From patent US7189351B2, “D-tagatose as an anti-biofilm agent” (priority 2001, dated 2007)

Experiments:
[1] = test system: F. nucleatum PK1594 and P. gingivalis PK1924; assay: phase-contrast photomicrographs of coaggregation; type: cell-based, Fusobacterium nucleatum; Porphyromonas gingivalis
oral bacteria = settings: known from literature; cited from earlier work
[2] = test system: Prevotella loescheii PK1295/Streptococcus oralis SO34; assay: reversal of coaggregation, visual score; type: cell-based; design: key: *: Coaggregations were reversed by both D-galactose and D-tagatose
Protocol: (§1) Fifteen oral isolates, including both early colonizers (Streptococcus and Actinomyces) and late colonizers (Fusobacterium, Porphyromonas, Prevotella, Veillonella, Capnocytophaga, and Actinobacillus), were tested for their ability to coaggregate with each other, followed by testing for the reversal of coaggregation by the addition of D-tagatose. Bacterial strains used were of human gingival crevice origin. The coaggregation was examined visually by a scoring system ranging from 0 for no visible coaggregation to 4 for maximum coaggregation [Cisar J. O., Kolenbrander P. E., and McIntire F. C., “Specificity of coaggregation reactions between human oral streptococci and strains of Actinomyces viscosus or Actinomyces naeslundii”, Infect. Immun., 24:742–752. 1979]. D-Tagatose, at a concentration of less than 750 mM, completely reversed the coaggregation of 17 (60%) of 28 strong coaggregating pairs (with a coaggregation score of 2 or higher) tested. […] These D-tagatose sensitive coaggregations were D-galactose reversible as well.
(§2) Pairs of various species of oral bacteria were tested for coaggregation, and for reversal of coaggregation when D-tagatose or D-galactose was administered.

[3] = test system: Prevotella loescheii PK1295/Streptococcus oralis C104; assay: reversal of coaggregation, visual score; type: cell-based; design: key: *: Coaggregations were reversed by both D-galactose and D-tagatose
Protocol: as §1, §2

[4] = test system: Fusobacterium nucleatum PK1594/Capnocytophaga ochracea 25; assay: reversal of coaggregation, visual score; type: cell-based; design: key: *: Coaggregations were reversed by both D-galactose and D-tagatose; settings: pair PK1594/Capno 25; coaggregation score 1 without sugar
Protocol: as §1, §2

[5] = test system: total bacteria and coliform; assay: sterilization of food-handling machinery, wash before Clean-In-Place (Example 7); settings: 200 mM in sterile water run through equipment immediately prior to CIP
Protocol: A cheese-making plant processes raw milk into cheese. The equipment includes many tubes, tubules, pipes and other surfaces that come in direct contact with the milk. Between runs, standard “Clean-In-Place” (CIP) operations are performed in which acid and oxidants are coursed through the equipment to contact all surfaces and are then washed out with sterile water. However, the formation of microbial plaques protects the microorganisms in the interiors of the plaques, and some survive the CIP. To overcome this problem, an initial step is added to the CIP whereby a stream of 200 mM D-tagatose in sterile water is run through the equipment, contacting all surfaces, immediately prior to instituting the CIP. […] Accordingly, the D-tagatose wash is made part of the CIP.

[6] = test system: staphylococcus lesion of the leg; assay: D-tagatose enhancing antibiotic activity (Example 4); type: in vivo, human; settings: one patient; five grams with each of three meals daily plus oral penicillin; in the course of a week
From the text: A patient with a staphylococcus lesion of the leg is placed on oral penicillin by their physician. […] The formation of plaque in the infected region protects the interior microorganisms from the antibiotic coursing through the bloodstream, and the plaque organisms develop increased resistance. The physician prescribes five grams of D-tagatose be taken with each of three meals daily, along with continued taking of the penicillin.

dental plaque = assay: D-tagatose in foods to control dental plaque (Example 3); type: in vivo, human; settings: third monthly check-up
From the text: Forty subjects, half male, half female, ranging from 4 to 80 years in age, daily consume foodstuffs, such as cakes, cookies, pies, hard candy, hot and cold cereals, cold fruit drinks, iced tea, coffee and tea, that are sweetened with conventional sweeteners including sucrose and high fructose corn syrup (HFCS). After several monthly check-ups, these subjects are found to have high dental plaque indices, and many of them are diagnosed with plaque-related oral diseases. At this point, the test foodstuffs are switched such that D-tagatose is used as a one-for-one replacement for the table sugar and HFCS previously used. No other changes are made in the test regimen.

[7] = prevention of stroke (Example 6); type: in vivo, human; settings: one patient with high blood pressure; 5 grams with each of three daily meals
From the text: A patient has gradually developed high blood pressure over the years. Their doctor places them on a blood pressure medicine when their pressure reaches 135/90 mm Hg. Despite gradual increases in dosage of the medicine, and trials of new medicines, over time their blood pressure continues to increase until reaching 145/100 mm Hg. At this point the physician fears the possibility of a stroke.

[8] = test system: biofilm on the heart valve; assay: prophylaxis against prosthetic valve endocarditis (Example 5); type: in vivo, human; settings: one patient; 10 grams with each of three daily meals, three days before until one week after surgery
From the text: An adult patient requires removal of their infected mitral valve and its replacement with a prosthetic valve. One of the principal hazards of such an operation is that the valve region of the heart will become infected, frequently with streptococci that form a biofilm protecting internal microorganisms from antibiotics, and also permitting such organisms to develop increasing resistance. In order to prevent the buildup of a biofilm infection, the physician places their patient on tagatose treatment for three days prior to the surgery. On each such day, the patient consumes 10 grams of D-tagatose with each of their three daily meals. The resulting D-tagatose blood level is sufficient to preclude the formation of a biofilm on the heart valve. The treatment is continued until one week after the operation and the patient is well on the road to recovery.

[9] = pair SO34/PK1295, coaggregation score 4 without sugar
[10] = pair Cl04/PK1295, coaggregation score 4 without sugar

Row | SMILES | dissociation of coaggregate clumps ([1]; 143 mM final concentration) | reversal of coaggregations that would otherwise form dental plaque (oral bacteria) | coaggregation score ([2]; pair PK1295/SO34, sugar 143 mM, water score 4, scale 0 no visible to 4 maximum coaggregation) | coaggregation score [2, 9] | coaggregation score [3, 10] | coaggregation score ([3]; pair PK1295/C104, sugar 143 mM, water score 4, scale 0 no visible to 4 maximum coaggregation) | coaggregation score without sugar [4] | total bacteria and coliform counts in cheese-making equipment [5] | outcome of staphylococcus lesion [6] | plaque indices (dental plaque; forty subjects, D-tagatose one-for-one replacement for table sugar and HFCS in foodstuffs) | plaque-related oral diseases (dental plaque; subjects who formerly exhibited disease) | risk of stroke [7] | dissociation of coaggregate clumps ([1]; 400 mM final concentration) | infection after prosthetic valve replacement [8] | coaggregation score ([2]; pair PK1295/SO34, sugar 750 mM, water score 4, scale 0 no visible to 4 maximum coaggregation) | coaggregation score ([3]; pair PK1295/C104, sugar 750 mM, water score 4, scale 0 no visible to 4 maximum coaggregation)
1 | O=C[C@H](O)[C@@H](O)[C@@H](O)[C@H](O)CO [D-Galactose] | dissociates clumps into individual cells | reverse the coaggregations of oral bacteria | 0 | 4* | 4* | 1 | 1* |  |  |  |  |  |  |  |  | 
2 | O=C(CO)[C@@H](O)[C@@H](O)[C@H](O)CO [D-Tagatose] |  |  |  | 4* | 4* |  | 1* | reducing the total bacteria and the coliform counts to acceptable regulatory levels | the lesion disappears | significantly lowered | complete or nearly complete recovery | significantly reduced | dissociates the clumps into individual cells | Infection has been avoided | 1 | 2
